Reference: US12398110B2, “Second generation inhibitors of mitochondrial permeability transition pore with improved plasma stability” (Oregon Health & Science University, priority 2019, dated 2025)

What was measured:
[1] = test system: col6a1 zebrafish morphants; test: Touch-evoked escape response in col6a1 zebrafish morphants; assay type: in vivo; conditions: 48 hpf, 27 hours of treatment, 0.1, 1 and 10 μm
Method: (§1) Zebrafish embryos were injected with col6a1 morpholino at the 1-cell stage, dechorionated at 20 hpf and treated at 21 hpf with 0.1, 1 or 10 μm of either TR001 or 63. DMSO-treated embryos injected with a scrambled morpholino were used as a control. […] It should be noted that in these protocols, embryos were exposed to drugs for a longer period of time than in the spontaneous coiling experiments. This difference may help to explain why TR001 was as effective at 0.1 μm as it was at 1 and 10 μm.
(§2) Morpholino antisense injection and treatment. Knock-down of col6a1 gene expression was obtained with a previously published morpholino ^[25] with sequence GAGAGCGGAAGACGAACCTTCATTC (SEQ ID NO: 2; GeneTools, Inc.). A control morpholino with no sequence homology in the zebrafish genome was used in parallel (CCTCTTACCTCAGTTACAATTTATA; SEQ ID NO: 3). Zebrafish eggs from wild-type matings were injected at the 1-2 cell stage with approximately 10 nL of 0.1 mm morpholino solution (corresponding to 4 ng of morpholino) using a WPI pneumatic PicoPump PV820 injector (World Precision Instruments, Inc.). Zebrafish embryos were dechorionated at 20 hours post fertilization (hpf) and treated at 21 hpf with increasing doses (0.1, 1 and 10 μm) of both TR001 and 63 compounds dissolved in fish water with 1% DMSO (vehicle).
Motor activity. The number of spontaneous coiling events performed in 15 seconds by single zebrafish embryos was recorded at 24 hpf by light microscopy. Touch-evoked escape responses were recorded at 48 hpf by observing the ability of zebrafish embryos to escape after a tail-touch with a little tip. Embryos were subdivided in 4 groups according to the observed phenotype: paralyzed embryos, score 0; underdeveloped embryos showing only coiling events, score 1; embryos showing lower motility, score 2; normal embryos, score 3.

[2] = test system: HeLa cells; test: HeLa cell viability assay; assay type: cell-based; conditions: up to 50 μm, 24 h treatment
Text: A thorough evaluation of toxicity is critical for advancing TR001 to in vivo studies. […] To more thoroughly examine mitochondrial toxicity, we analyzed oxygen consumption rates (OCRs) using the Seahorse XF24 extracellular flux analyzer. This allowed us to assess the effects of TR001 on mitochondrial respiration and ATP synthesis. […] Consequently respiratory control ratios (i.e., the ratios between ADP-stimulated and basal respiration) were not affected across the concentrations tested (FIG. 5B). Complex III inhibitor antimycin A shuts down the electron transport chain at the bc1 complex and was used to account for oxygen leak.
Cell viability assay. HeLa cells were seeded at a density of 10^4 per well in 96-well plates and let to adhere for 6 h before treatment with varying concentrations of TR001 or vehicle (1% DMSO. After treatment for 24 h the relative viable cell number was determined with a CellTiter 96 Aqueous One Solution Cell Proliferation Assay Kit (Promega).

[3] = test system: mtPTP; test: Chemical activator (PhAsO, Diamide, Cu(OP)2, NEM) induced mitochondrial swelling; assay type: biochemical, mouse; conditions: 1.5 μm compound, 10 μm Ca2+ plus PhAsO, Cu(OP)2 or NEM
Method: […] graphs compound TR001 prevention of chemical activation induced mitochondrial swelling. FIG. 3A-3D) mouse liver mitochondria (0.25 mg/mL) were treated with 10 μM Ca^2+ only (traces a); 10 μm Ca^2+ and after 2 min of incubation with: FIG. 3A) 7 μm PhAsO, FIG. 3B) 2 mm Diamide, FIG. 3C), 7 μm Cu(OP)2, FIG. 3D), 2 mm NEM (traces b-d). In traces c and d additions were as in traces b except that mitochondria were also treated with 1.5 μmCsA (traces c) or TR001 (traces d). Traces are representative of n=4 independent preparations.
Based on the SAR studies and mouse plasma stability data, we decided to move forward with TR001 for more extensive biological characterization. As noted above, mtPTP is triggered by elevated levels of matrix Ca^2+ and potentiated by oxidative stress, leading to mitochondrial swelling. We therefore next tested the ability of TR001 to protect from oxidizing agent-triggered mtPTP opening. For this purpose, we used known chemical activators of the mtPTP that react with two distinct classes of redox sensitive thiols (—SH) and increase the propensity of mtPTP opening. […]

[4] = test system: col6a1 zebrafish morphants; test: Spontaneous coiling events in col6a1 zebrafish morphants; assay type: in vivo; conditions: 24 hpf, 3 hours of treatment, 0.1, 1 or 10 μm
Method: as §1
Morpholino antisense injection and treatment. Knock-down of col6a1 gene expression was obtained with a previously published morpholino ^[25] with sequence GAGAGCGGAAGACGAACCTTCATTC (SEQ ID NO: 2; GeneTools, Inc.). A control morpholino with no sequence homology in the zebrafish genome was used in parallel (CCTCTTACCTCAGTTACAATTTATA; SEQ ID NO: 3). […]
Motor activity. The number of spontaneous coiling events performed in 15 seconds by single zebrafish embryos was recorded at 24 hpf by light microscopy. Touch-evoked escape responses were recorded at 48 hpf by observing the ability of zebrafish embryos to escape after a tail-touch with a little tip. […]

[5] = test system: col6a1 zebrafish morphants; test: Birefringence (muscle structure) in col6a1 zebrafish morphants; assay type: in vivo; conditions: 48 hpf
Method: Muscle structure was assessed by birefringence analysis at 48 hpf, a time when muscle tissue is fully developed and organized muscle fibers start to show anisotropic features. A high percentage of severe birefringence abnormality (>75%, FIG. 6C) was detected in col6a1 morphants, indicating major defects of muscle fiber development and organization.
as §2, with “Zebrafish embryos were dechorionated at 20 hours post fertilization (hpf) and treated at 21 hpf with increasing doses (0.1, 1 and 10 μm) of both TR001 and 63 compounds dissolved in fish water with 1% DMSO (vehicle).” left out
Birefringence. Muscle structure was monitored by birefringence analysis, taking advantage of muscle anisotropy, which is the ability of muscle fibers to refract polarized light. […] With this set-up, light refracted by muscle fibers (due to the pseudo-crystalline array of sarcomeres) is transmitted and analyzed. Integrated area of birefringence was calculated using ImageJ software. […]

## Cc1ccc(Cl)cc1NC(=O)c1cn(-c2ccc(F)c(O)c2)nn1 [TR001, N-(5-chloro-2-methylphenyl)-1-(4-fluoro-3-hydroxyphenyl)-1H-1,2,3-triazole-4-carboxamide]
[1]
  touch-evoked escape response (motility): improved
[2]
  HeLa cell viability: did not exhibit any adverse effects
[3]
  effect on oxidizing agent-triggered mtPTP opening: delayed mtPTP opening
[4]
  spontaneous coiling events: partially rescued the defect
[5]
  muscle structure by birefringence: significantly rescued
